Data from US11059855B2, “Antimicrobial peptides and methods of making and using same” (priority 2017, dated 2021).

Key:
[1] = Circular dichroism secondary structure (Dichroweb), peptide only; type: physicochemical; details: 20 °C
Experimental: (§1) Dichroweb software analyzes the secondary structure of LDKA peptides from circular dichroism spectroscope. The table presents the percentage of each helix and strand structure at different temperature. The data are analyzed using CONTIN-LL method and Reference Set 4 (Optimised for 190-240 nm).
(§2) Peptide solutions (peptide concentration is 50 μM) were titrated with POPC and POPG LUVs (50, 100, 250, 500, 1000 μM) and the corresponding changes CD spectra collected. Analysis of these spectra using CD tools and Dichroweb provides an ensemble average of the changes in secondary structure in the presence of POPC and POPG LUVs (dichroweb.cryst.bbk.ac.uk), which gives a direct measure of the binding free energies for each peptide.

[2] = Circular dichroism secondary structure (Dichroweb), with POPC; type: physicochemical
Experimental: as §1, §2

[3] = Circular dichroism secondary structure (Dichroweb), with POPG; type: physicochemical
Experimental: as §1, §2

[4] = ANTS/DPX leakage assay, POPC; type: biochemical; details: P:L = 1:1000, pH 7 phosphate buffer
Experimental: (§3) 5 mM ANTS and 12.5 mM DPX were entrapped in 0.1 μm diameter extruded vesicles with lipids. Gel filtration chromatography of Sephadex G-100 (GE Healthcare Life Sciences Inc.) was used to remove external free ANTS/DPX from LUVs with entrapped contents. […] Leakage was measured after 3 hr incubation. 10% Triton was used as the positive control to measure the maximum leakage of the vesicle. Fluorescence emission spectra were recorded using excitation wavelength (Ex: 350 nm) and emission wavelength (Em: 510 nm) for ANTS/DPX using Synergy H1 Hybrid Multi-Mode Reader.
(§4) This detects and quantifies the release of a small fluorescent dye (ANTS/DPX; MW=˜400 Da) encapsulated in LUVs after addition of library peptides. Neutral POPC LUVs serve as a simple model for mammalian membranes, while charged POPG LUVs mimic bacterial membranes enriched in anionic lipids.

[5] = ANTS/DPX leakage assay, POPG; type: biochemical; details: P:L = 1:1000, pH 7 phosphate buffer
Experimental: as §3, §4

[6] = 3-kDa dextran macromolecule release assay, POPG; type: biochemical; details: P:L = 1:1000, pH 7 phosphate buffer
[7] = Pore-size characterization by 3-kDa dextran release; type: biochemical; details: ‡Large pore for PG only
Description: Eight LDKA peptides with different lipid selectivity and pore sizes were selected from the high-throughput screen and sequenced. […] The most common mutation is L to A, occurred 13 times and in 7 out of the 8 peptides, followed by A to L, which occurred 6 times in 5 peptides, L to D which occurred 3 times in 3 peptides, and L to P that occurred once. Lysine (K) is not favorable to be shown at the position 6, 8, 10, 12, and 13, which is the non-polar face of the helical structure. […] More specifically, the analogs only induce leakage from anionic POPG vesicles have 4-5 leucines, which is less than the analogs that can porate both POPC and POPG vesicles and have 6-7 leucines in their sequences.

[8] = Membrane selectivity from high-throughput dye leakage screen; type: biochemical; details: PC = POPC, PG = POPG
Description: as §4

[9] = tested on: S. aureus; assay: Bacterial minimum inhibitory concentration (MIC), S. aureus; type: cell-based, Staphylococcus aureus; details: 75 μM maximum tested; NDA = not determinable
Experimental: (§5) Escherichia colt strain ATCC 25922, Staphylococcus aureus strain ATCC 25923, and Pseudomonas aeruginosa strain ATCC PAO1 were used in this study. Overnight cultures were subcultured to log phase (OD600=0.3-0.6) after which cell counts were determined by measuring the OD600 (OD600 1.0=1.5×10^8 CFU/mL for S. aureus, 5×10^8 CFU/mL for E. colt, and 2.04×10^8 CFU/mL for P. aeruginosa). Bacteria in minimal media mere added to serially diluted peptides and incubated for 3 hr, followed by the addition of full growth media. After overnight incubation, the optical density of the wells was recorded on a plate reader to determine whether they were sterilized (OD<0.08) or were at stationary phase growth (OD600>0.5). Intermediate values, which were rare, were considered positive for growth. Average minimum sterilizing concentrations were calculated from the lowest peptide concentration that sterilized the bacteria in each serial dilution. The samples were done in sextuplet.

[10] = tested on: methicillin-resistant Staphylococcus aureus (MRSA); type: cell-based; details: 75 μM maximum tested; NDA = not determinable
[11] = tested on: P. aeruginosa; assay: Bacterial minimum inhibitory concentration (MIC), P. aeruginosa; type: cell-based, Pseudomonas aeruginosa; details: 75 μM maximum tested; NDA = not determinable
Experimental: as §5

[12] = tested on: Escherichia coli biofilm; assay: Activity against biofilm, E. coli; type: cell-based; details: 67-150 μM peptide, 3 hr treatment
Experimental: Selected analogues were tested with each (13A). Escherichia coli biofilm, (13B). Staphylococcus aureus biofilm, and (13C) Pseudomonas aeruginosa biofilm.
However, most of the LDKA analogues fail to treat S. aureus and P. aeruginosa biofilms. Only K7H and 7F3 are capable to reduce S. aureus biofilms by ˜50% with 100 μM peptide concentration, and none of the analogues work against P. aeruginosa biofilms (FIGS. 13a-13c).

[13] = provided by the distributor, GenScript; cited from earlier work

Substance | Peptide-only, Strand [1] | Peptide-POPC, Helix ([2]; 20 °C) | Peptide-POPC, Strand ([2]; 20 °C) | Peptide-POPC, Helix ([2]; 45 °C) | Peptide-POPC, Strand ([2]; 45 °C) | Peptide-POPC, Helix ([2]; 70 °C) | Peptide-POPC, Strand ([2]; 70 °C) | Peptide-POPC, Helix ([2]; 95 °C) | Peptide-POPC, Strand ([2]; 95 °C) | Peptide-POPG, Helix ([3]; 20 °C) | Peptide-POPG, Strand ([3]; 20 °C) | Peptide-POPG, Helix ([3]; 45 °C) | Peptide-POPG, Strand ([3]; 45 °C) | Peptide-POPG, Helix ([3]; 70 °C) | Peptide-POPG, Strand ([3]; 70 °C) | Peptide-POPG, Helix ([3]; 95 °C) | Peptide-POPG, Strand ([3]; 95 °C) | ANTS/DPX release, POPC [4] | ANTS/DPX release, POPG [5] | 3-kDa Dextran release, POPG [6] | also measured
H-GLADAAKLLLKAAGW-NH2 [Peptide 11D12] | 8% | 38% | 12% | 39% | 10% | 39% | 9% | 33% | 12% | 96% | 0% | 92% | 0% | 90% | 0% | 77% | 1% | 8% | 101% | 58% | Pore size [7]: Large; Membrane selectivity (POPC vs POPG vesicles) [8]: PG > PC; Minimum Inhibitory Concentration, S. aureus [9]: NDA; Minimum Inhibitory Concentration, MRSA [10]: NDA; Minimum Inhibitory Concentration, P. aeruginosa [11]: NDA; Elimination of E. coli biofilm [12]: ~50%; Solubility, DMSO [13]: 20 mg/mL; Solubility, DPBS pH 7.1 [13]: 10 mg/mL; Solubility, Ultrapure Water [13]: 10 mg/mL
H-GLLDAAKLLAKAAGW-NH2 [Peptide 24F1] | 14% | 32% | 16% | 32% | 16% | 27% | 17% | 24% | 22% | 91% | 0% | 88% | 1% | 77% | 1% | 66% | 2% | 15% | 100% | 69% | Pore size [7]: Large; Membrane selectivity (POPC vs POPG vesicles) [8]: PG > PC; Minimum Inhibitory Concentration, S. aureus [9]: NDA; Minimum Inhibitory Concentration, MRSA [10]: NDA; Minimum Inhibitory Concentration, P. aeruginosa [11]: 66 µM; Elimination of E. coli biofilm [12]: ~50%; Solubility, DMSO [13]: 15 mg/mL; Solubility, DPBS pH 7.1 [13]: 5 mg/mL; Solubility, Ultrapure Water [13]: 10 mg/mL
H-GLLDLPKALAKALGW-NH2 [Peptide 7G6] | 10% | 49% | 10% | 56% | 6% | 47% | 10% | 30% | 20% | 86% | 2% | 87% | 2% | 82% | 3% | 75% | 3% | 48% | 105% | -1% | Pore size [7]: Small; Membrane selectivity (POPC vs POPG vesicles) [8]: PG > PC; Minimum Inhibitory Concentration, S. aureus [9]: NDA; Minimum Inhibitory Concentration, MRSA [10]: NDA; Minimum Inhibitory Concentration, P. aeruginosa [11]: NDA; Elimination of E. coli biofilm [12]: ~50%; Solubility, DMSO [13]: 15 mg/mL; Solubility, DPBS pH 7.1 [13]: 15 mg/mL; Solubility, Ultrapure Water [13]: 10 mg/mL
